The source of these data is ChEMBL document CHEMBL5465560, “Selectivity Literature for EUbOPEN Chemogenomic Library” (2024).

Assay [1] concerns the target G protein-coupled receptor kinase 6 (Homo sapiens) (UniProt P43250). In words: Selectivity interaction (SelectScreen profiling (Invitrogen)) EUB0000607a GRK6. The following applies: at 2 µM.
For assay [2], the target named is Casein kinase I isoform gamma-1 (Homo sapiens) (UniProt Q9HCP0). To be noted: at 10 µM.
Assay [3] concerns the target T1, Serine/threonine-protein kinase 3 (Homo sapiens) (UniProt Q13188).
T1 sequence (whole entry): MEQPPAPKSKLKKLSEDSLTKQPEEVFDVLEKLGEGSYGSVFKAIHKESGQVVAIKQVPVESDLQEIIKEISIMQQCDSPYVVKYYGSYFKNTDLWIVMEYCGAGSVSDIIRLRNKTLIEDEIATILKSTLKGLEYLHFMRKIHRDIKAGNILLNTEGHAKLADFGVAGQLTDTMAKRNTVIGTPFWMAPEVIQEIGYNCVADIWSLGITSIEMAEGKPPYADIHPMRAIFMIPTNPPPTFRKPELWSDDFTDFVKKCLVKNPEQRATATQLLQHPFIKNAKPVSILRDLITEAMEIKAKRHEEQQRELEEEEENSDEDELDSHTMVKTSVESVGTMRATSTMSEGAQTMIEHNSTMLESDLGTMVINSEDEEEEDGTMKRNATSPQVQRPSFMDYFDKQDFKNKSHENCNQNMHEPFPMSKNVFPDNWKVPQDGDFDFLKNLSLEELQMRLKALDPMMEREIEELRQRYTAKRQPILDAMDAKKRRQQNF
In words: Selectivity interaction (ActivX KiNativ screen (kinase selectivity in THP-1 cell lysates)) EUB0000639a STK3. It is filed as subcellular. To be noted: lysate, at 0.01 µM.

In assay [4] the target is Ribosomal protein S6 kinase alpha-3 (Homo sapiens, UniProt P51812). In words: Selectivity interaction (ActivX KiNativ screen (kinase selectivity in THP-1 cell lysates)) EUB0000639a RPS6KA3. To be noted: lysate, at 0.01 µM. Format: subcellular.
The target in assay [5] is T2, Non-receptor tyrosine-protein kinase TNK1 (Homo sapiens) (UniProt Q13470).
T2 sequence (whole entry): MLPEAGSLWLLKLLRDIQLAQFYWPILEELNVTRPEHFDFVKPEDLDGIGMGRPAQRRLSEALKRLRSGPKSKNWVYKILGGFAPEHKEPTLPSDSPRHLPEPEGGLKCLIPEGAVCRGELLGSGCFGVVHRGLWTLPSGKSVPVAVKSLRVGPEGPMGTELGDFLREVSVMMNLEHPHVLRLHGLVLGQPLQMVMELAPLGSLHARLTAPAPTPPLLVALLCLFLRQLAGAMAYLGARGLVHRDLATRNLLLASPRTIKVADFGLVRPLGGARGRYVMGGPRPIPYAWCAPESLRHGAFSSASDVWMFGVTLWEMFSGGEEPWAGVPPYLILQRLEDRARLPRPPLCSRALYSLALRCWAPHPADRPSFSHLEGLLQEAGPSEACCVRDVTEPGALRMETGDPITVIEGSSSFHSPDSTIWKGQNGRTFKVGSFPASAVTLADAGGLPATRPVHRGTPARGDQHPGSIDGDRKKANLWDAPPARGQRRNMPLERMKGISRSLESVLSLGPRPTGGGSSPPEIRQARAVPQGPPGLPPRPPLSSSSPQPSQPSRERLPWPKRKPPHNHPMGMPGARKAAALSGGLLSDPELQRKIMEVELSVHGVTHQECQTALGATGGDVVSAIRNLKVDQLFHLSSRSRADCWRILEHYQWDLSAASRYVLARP
In words: Selectivity interaction (KinomeScan (DiscoverX)) EUB0001049a TNK1. The following applies: at 1 µM.

The target in assay [6] is Tyrosine-protein kinase ABL1 (Homo sapiens, UniProt P00519). Nature of the assay: Selectivity interaction (Kinase panel (DSF assay)) EUB0001559a ABL1.
Assay [7] addresses Mitogen-activated protein kinase 8 (Homo sapiens, UniProt P45983). In words: Selectivity interaction (Upstate Kinase Profiler service (Millipore)) EUB0000056c MAPK8. To be noted: at 1 µM.
The target in assay [8] is T3, Interleukin-1 receptor-associated kinase 4 (Homo sapiens) (UniProt Q9NWZ3).
T3 sequence (whole entry): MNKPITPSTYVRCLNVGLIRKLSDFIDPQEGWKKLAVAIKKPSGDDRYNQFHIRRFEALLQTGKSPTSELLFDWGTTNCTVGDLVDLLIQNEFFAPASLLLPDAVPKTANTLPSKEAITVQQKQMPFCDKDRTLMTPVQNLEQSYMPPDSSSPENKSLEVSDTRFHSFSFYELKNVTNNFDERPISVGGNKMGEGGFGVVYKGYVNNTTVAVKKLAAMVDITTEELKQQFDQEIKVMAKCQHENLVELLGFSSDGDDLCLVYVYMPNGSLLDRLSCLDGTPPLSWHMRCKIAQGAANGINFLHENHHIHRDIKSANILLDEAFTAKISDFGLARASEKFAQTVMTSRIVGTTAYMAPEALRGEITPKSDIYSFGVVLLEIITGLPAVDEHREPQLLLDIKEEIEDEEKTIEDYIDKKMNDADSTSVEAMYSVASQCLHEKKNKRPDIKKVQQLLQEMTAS
Nature of the assay: Selectivity interaction (KinomeScan (DiscoverX)) EUB0000595a IRAK4. The following applies: at 10 µM.

Assay [9] concerns the target T4, Serine/threonine-protein kinase NLK (Homo sapiens) (UniProt Q9UBE8).
T4 sequence (whole entry): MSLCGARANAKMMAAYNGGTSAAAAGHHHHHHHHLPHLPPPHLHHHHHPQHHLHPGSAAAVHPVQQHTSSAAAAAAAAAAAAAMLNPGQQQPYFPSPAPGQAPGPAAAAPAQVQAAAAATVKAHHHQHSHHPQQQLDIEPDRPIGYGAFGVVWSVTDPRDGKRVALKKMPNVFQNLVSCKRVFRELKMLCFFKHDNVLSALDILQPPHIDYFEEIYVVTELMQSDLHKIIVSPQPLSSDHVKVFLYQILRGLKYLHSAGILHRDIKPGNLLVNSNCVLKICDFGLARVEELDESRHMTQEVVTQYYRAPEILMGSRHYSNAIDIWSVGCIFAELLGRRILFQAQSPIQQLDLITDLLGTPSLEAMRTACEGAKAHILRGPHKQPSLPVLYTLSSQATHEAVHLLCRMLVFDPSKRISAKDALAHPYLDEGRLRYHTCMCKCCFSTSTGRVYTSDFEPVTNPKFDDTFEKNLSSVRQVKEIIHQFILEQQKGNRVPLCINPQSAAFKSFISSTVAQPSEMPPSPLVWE
The following applies: at 10 µM.

Chain of G protein-coupled receptor kinase 6 (Homo sapiens) (P43250 whole entry, looked up, canonical isoform): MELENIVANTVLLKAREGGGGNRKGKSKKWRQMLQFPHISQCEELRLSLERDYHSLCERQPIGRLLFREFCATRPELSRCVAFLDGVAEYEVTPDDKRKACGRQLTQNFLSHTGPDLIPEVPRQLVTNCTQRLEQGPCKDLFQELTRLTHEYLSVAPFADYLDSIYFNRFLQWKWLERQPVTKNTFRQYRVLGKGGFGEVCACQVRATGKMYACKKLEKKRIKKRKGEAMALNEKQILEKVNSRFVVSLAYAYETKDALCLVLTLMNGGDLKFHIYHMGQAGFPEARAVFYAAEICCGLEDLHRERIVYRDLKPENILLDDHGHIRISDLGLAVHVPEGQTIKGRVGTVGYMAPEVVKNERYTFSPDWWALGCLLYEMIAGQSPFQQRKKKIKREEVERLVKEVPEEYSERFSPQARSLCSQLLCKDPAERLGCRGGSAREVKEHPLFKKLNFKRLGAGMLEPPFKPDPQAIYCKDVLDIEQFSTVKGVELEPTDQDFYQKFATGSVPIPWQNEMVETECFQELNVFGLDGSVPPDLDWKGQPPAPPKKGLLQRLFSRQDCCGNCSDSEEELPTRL
Chain of Ribosomal protein S6 kinase alpha-3 (P51812 whole entry): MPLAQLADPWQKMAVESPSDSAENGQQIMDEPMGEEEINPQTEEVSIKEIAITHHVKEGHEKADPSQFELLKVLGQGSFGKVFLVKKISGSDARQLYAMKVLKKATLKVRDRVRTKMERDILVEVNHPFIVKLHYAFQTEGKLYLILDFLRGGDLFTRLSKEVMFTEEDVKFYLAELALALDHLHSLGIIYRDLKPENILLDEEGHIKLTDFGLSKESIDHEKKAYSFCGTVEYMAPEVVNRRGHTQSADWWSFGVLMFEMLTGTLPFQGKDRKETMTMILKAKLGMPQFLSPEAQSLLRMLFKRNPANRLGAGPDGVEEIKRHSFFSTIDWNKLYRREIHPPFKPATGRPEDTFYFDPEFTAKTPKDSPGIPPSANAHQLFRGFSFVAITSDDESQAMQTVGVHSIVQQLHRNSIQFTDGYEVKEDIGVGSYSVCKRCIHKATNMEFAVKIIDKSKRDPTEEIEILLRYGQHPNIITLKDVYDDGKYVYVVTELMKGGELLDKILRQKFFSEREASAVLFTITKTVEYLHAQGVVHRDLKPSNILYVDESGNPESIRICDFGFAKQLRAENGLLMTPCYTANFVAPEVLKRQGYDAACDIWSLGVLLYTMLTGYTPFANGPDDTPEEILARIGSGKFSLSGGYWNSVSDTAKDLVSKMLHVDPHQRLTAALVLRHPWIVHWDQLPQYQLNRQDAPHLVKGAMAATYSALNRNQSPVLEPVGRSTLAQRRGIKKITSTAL
Chain of Tyrosine-protein kinase ABL1 (P00519 whole entry): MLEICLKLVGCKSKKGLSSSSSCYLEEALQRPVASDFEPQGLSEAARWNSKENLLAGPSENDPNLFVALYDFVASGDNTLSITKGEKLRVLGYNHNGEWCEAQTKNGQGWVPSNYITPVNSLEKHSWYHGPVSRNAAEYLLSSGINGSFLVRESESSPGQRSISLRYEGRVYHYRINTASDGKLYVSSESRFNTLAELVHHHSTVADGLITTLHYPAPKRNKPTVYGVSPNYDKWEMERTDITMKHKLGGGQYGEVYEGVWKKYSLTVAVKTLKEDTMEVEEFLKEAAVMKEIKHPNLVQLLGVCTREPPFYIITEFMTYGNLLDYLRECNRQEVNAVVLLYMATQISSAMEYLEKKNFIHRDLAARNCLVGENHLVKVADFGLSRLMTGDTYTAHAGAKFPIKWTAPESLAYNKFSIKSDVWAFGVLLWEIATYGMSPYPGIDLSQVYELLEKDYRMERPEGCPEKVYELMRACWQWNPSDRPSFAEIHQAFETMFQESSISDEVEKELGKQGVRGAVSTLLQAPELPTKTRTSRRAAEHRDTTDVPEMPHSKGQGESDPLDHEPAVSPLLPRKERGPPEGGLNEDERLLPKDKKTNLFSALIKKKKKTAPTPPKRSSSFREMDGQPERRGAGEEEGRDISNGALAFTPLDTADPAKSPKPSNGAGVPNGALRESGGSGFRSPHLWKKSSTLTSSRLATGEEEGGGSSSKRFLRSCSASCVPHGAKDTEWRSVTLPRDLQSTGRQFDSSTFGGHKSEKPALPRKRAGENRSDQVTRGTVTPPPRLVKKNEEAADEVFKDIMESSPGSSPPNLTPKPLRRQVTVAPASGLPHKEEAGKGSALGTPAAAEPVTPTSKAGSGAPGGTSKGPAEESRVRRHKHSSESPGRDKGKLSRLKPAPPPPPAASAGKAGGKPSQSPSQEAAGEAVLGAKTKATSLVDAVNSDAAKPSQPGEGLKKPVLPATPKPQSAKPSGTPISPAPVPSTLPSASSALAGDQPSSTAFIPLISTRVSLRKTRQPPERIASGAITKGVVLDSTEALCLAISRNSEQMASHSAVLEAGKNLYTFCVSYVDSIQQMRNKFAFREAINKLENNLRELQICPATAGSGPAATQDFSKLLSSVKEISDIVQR
Chain of Mitogen-activated protein kinase 8 (P45983 whole entry): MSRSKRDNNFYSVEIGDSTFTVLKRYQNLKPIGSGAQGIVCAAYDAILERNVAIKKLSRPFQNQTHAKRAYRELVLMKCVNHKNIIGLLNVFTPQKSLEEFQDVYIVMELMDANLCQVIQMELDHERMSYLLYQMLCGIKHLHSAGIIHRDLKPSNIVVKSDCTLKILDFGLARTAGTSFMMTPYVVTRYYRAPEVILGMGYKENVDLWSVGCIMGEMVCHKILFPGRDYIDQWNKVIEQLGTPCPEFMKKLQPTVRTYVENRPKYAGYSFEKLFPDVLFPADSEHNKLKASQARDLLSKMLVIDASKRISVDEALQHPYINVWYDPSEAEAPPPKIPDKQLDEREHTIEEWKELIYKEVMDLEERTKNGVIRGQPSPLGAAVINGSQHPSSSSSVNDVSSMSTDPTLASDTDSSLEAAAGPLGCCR
Chain of Casein kinase I isoform gamma-1 (Homo sapiens) (Q9HCP0 whole entry, looked up, canonical isoform): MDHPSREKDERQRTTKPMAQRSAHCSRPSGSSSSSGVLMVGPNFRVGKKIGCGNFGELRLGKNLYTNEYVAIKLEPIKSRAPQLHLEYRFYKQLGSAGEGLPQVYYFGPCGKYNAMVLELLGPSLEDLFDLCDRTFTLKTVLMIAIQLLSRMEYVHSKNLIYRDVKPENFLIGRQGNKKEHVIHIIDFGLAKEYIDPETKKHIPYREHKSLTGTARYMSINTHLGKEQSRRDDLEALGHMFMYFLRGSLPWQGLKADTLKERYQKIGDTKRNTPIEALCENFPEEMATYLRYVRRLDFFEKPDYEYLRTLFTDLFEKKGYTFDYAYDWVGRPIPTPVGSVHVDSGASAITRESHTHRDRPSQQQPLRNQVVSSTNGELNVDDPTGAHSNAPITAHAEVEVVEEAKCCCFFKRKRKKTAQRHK

Consider `CNC(=O)Nc1ccc(-c2nc(N3CC4CCC(C3)O4)c3cnn(C4CCC5(CC4)OCCO5)c3n2)cc1`, for which the % of inhibition in assay [1] is -1%.

Regarding `Cc1cc([C@@H](C)Nc2ccccc2C(=O)O)c2nc(N3CCOCC3)cc(=O)n2c1` [AZD-6482], the % of control in [2] was found to be 68%.

`CC[C@@H]1[C@H](F)C(=O)N[C@@H]1COc1nccc2cc(C(N)=O)c(OC)cc12` [ZIMLOVISERTIB]: the values for the % of inhibition in assay [3] and in assay [4] were -19.5% and 10.7%, respectively.

Consider `COc1cc(Nc2nc(C)cc(-c3cnn4nc(OC)ccc34)n2)cc(C(F)(F)F)c1`, for which the % of control in assay [5] worked out at 80%.

As to `CN(C(=O)c1cnn2cccnc12)c1cc2c(cc1N1CCOCC1)C(=O)N(C[C@@H](F)C(C)(C)O)C2`, the dTM in assay [6] was found to be 0.6 K.

Turning to `Cc1ccc(-c2ccc3c(ccc4sc5c(c43)NC[C@@H](C)NC5=O)n2)cn1`, the % of inhibition in [7] came out at 10%.

In the case of `COCC(=O)NC/C=C/c1ccc2ncnc(Nc3ccc(Oc4ccc(C)nc4)c(C)c3)c2c1` [CP-724714], the % of control in [8] and in [9] was 100% each time.
